Reference: US8143282B2, “Heterocyclic compounds” (S*BIO Pte Ltd., priority 2005, dated 2012)

Tests used:
[1] = target: T1, HDAC1 enzyme (Homo sapiens, UniProt Q13547); experiment: In vitro HDAC assay for determination of IC50 values (BIOMOL fluorescent-based HDAC activity assay); type: biochemical
T1 construct: Amplification of human HDAC1 coding region from this cDNA library was cloned separately into the baculovirus expression pDEST20 vector; made in house; host or cells: SF9 insect cells, pDEST20-HDAC1 baculovirus
Experimental: Human cDNA library was prepared using cultured SW620 cells. Amplification of human HDAC1 coding region from this cDNA library was cloned separately into the baculovirus expression pDEST20 vector (GATEWAY Cloning Technology, Invitrogen Pte Ltd). The pDEST20-HDAC1 construct was confirmed by DNA sequencing. Recombinant baculovirus was prepared using the Bac-To-Bac method following the manufacturer's instruction (Invitrogen Pte Ltd).
Expression of GST-HDAC1 was done by infecting SF9 cells (Invitrogen Pte Ltd) with pDEST20-HDAC1 baculovirus at MOI=1 for 48 h. Soluble cell lysate was incubated with pre-equilibrated Glutathione Sepharose 4B beads (Amersham) at 4° C. for 2 h. The beads were washed with PBS buffer for 3 times. The GST-HDAC1 protein was eluted by elution buffer containing 50 mM Tris, pH8.0, 150 mM NaCl, 1% Triton X-100 and 10 mM or 20 mM reduced Glutathione. The purified GST-HDAC1 protein was dialyzed with HDAC storage buffer containing 10 mM Tris, pH7.5, 100 mM NaCl and 3 mM MgCl2. 20% Glycerol was added to purified GST-HDAC1 protein before storage at −80° C.
The assay has been carried out in 96 well format and the BIOMOL fluorescent-based HDAC activity assay has been applied. […] Flur de lys Developer was added and the reaction was incubated for 10 min. Briefly, deacetylation of the substrate sensitizes it to the developer, which then generates a fluorophore. The fluorophore is excited with 360 nm light and the emitted light (460 nm) is detected on a fluorometric plate reader (Tecan Ultra Microplate detection system, Tecan Group Ltd.).
The analytical software, Prism 4.0 (GraphPad Software Inc) has been used to generate IC50 from a series of data.

[2] = tested on: Colo205 cells; experiment: Cell-based proliferation assay for GI50 (CyQUANT), Colo205; details: Homo sapiens, COLO 205, 96 h treatment, read-out: Cellular or Growth Inhibition Activity in Colo205 cells, GI50
Experimental: Human colon cancer cell lines (Colo205, HCT116), Ovarian cancer cell line (A2780), Hepatoma cell line (HEP3B), Prostate cancer cell line (PC3) were obtained from ATCC or ECACC. Colo205 cells were cultivated in RPMI 1640 containing 2 mM L-Glutamine, 5% FBS, 1.0 mM Na Pyruvate, 1 U/ml of penicillin and 1 μg of streptomycin. HCT116 cells were cultivated in McCoy's containing RPMI 1640 containing 2 mM L-Glutamine, 5% FBS, 1 U/ml of penicillin and 1 μg of streptomycin. A2780 cells were cultivated in RPMI 1640 containing 2 mM L-Glutamine, 5% FBS, 1 U/ml of penicillin and 1 μg of streptomycin. HEP3B cells were cultivated in EMEM containing 2 mM L-glutamine, 5% FBS, 1% non essential amino acid, 1 mM Na Pyruvate, 1 U/ml of penicillin and 1 μg of streptomycin. PC3 cells were cultivated in F12K, 2 mM L-glutamine, 5% FBS, 1 U/ml of penicillin and 1 μg of streptomycin. PC3, Colo205, and HCT116 cells were seeded in 96-wells plate at 1000, 5000 and 6000 cells per well respectively. A2780 and HEP3B cells were seeded in 96-wells plate at 4000 cells per well respectively. The plates were incubated at 37° C., 5% CO2, for 24 h. Cells were treated with compounds at various concentrations for 96 h. Cell growth was then monitored using CyQUANT® cell proliferation assay (Invitrogen Pte Ltd). Dose response curves were plotted to determine GI50 values for the compounds using XL-fit (ID Business Solution, Emeryville, Calif.). GI50 is defined as the concentration of compound required for 50% inhibition of cell growth.

T1 sequence (Q13547 whole entry): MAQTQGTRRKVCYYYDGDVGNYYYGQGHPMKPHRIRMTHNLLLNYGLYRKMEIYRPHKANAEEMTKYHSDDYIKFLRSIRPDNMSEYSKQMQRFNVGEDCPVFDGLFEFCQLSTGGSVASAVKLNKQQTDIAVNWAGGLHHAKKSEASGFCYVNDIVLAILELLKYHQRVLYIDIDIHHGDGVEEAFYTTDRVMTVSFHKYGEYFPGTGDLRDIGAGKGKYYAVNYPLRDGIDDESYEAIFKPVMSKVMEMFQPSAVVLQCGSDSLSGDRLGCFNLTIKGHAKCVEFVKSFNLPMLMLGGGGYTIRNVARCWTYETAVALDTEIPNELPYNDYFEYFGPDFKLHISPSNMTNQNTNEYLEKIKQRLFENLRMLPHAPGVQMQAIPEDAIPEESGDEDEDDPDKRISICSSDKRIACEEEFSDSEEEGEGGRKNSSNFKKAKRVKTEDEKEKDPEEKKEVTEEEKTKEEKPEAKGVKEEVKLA

Row | SMILES | IC50 [1] [nM] | GI50 [2] [nM]
1 | CCN(CC)CCn1c(CC(C)CC(C)(C)C)nc2cc(/C=C/C(=O)NO)ccc21 (stereo not drawn) [Compound 41, 3-[1-(2-Diethylamino-ethyl)-2-(2,4,4-trimethyl-pentyl)-1H-benzoimidazol-5-yl]-N-hydroxy-acrylamide] | 62 | 920
2 | CCCc1nc2cc(/C=C/C(=O)NO)ccc2n1CCN(CC)CC [Compound 42, 3-[1-(2-Diethylamino-ethyl)-2-propyl-1H-benzoimidazol-5-yl]-N-hydroxy-acrylamide] | 150 | 980
3 | CCCCc1nc2cc(/C=C/C(=O)NO)ccc2n1CCN(C(C)C)C(C)C [Compound 43, 3-[2-Butyl-1-(2-diisopropylamimo-ethyl)-1H-benzoimidazol-5-yl]-N-hydroxy-acrylamide] | 330 | 1860
4 | CCCCc1nc2cc(/C=C/C(=O)NO)ccc2n1C1CCN(Cc2ccccc2)CC1 [Compound 48, 3-[1-(1-Benzyl-piperidin-4-yl)-2-butyl-1H-benzoimidazol-5-yl]-N-hydroxy-acrylamide] | 430 | 780
5 | CC(Cc1nc2cc(/C=C/C(=O)NO)ccc2n1CCN(C)C)CC(C)(C)C (stereo not drawn) [Compound 51, 3-[1-(2-Dimethylamino-ethyl)-2-(2,4,4-trimethyl-pentyl)-1H-benzoimidazol-5-yl]-N-hydroxy-acrylamide] | 66 | 260
6 | CCN(CC)CCn1c(CCNC(=O)CC(C)(C)C)nc2cc(/C=C/C(=O)NO)ccc21 [Compound 59, N-{2-[1-(2-Diethylamino-ethyl)-5-(2-hydroxycarbamoyl-vinyl)-1H-benzoimidazol-2-yl]-ethyl}-3,3-dimethyl-butyramide] | 77 | 2280
7 | CCN(CC)CCn1c(CCNC(=O)C(C)(C)C)nc2cc(/C=C/C(=O)NO)ccc21 [Compound 60, 3-{1-(2-Diethylamino-ethyl)-2-[2-(2,2-dimethyl-propionylamino)-ethyl]-1H-benzoimidazol-5-yl}-N-hydroxy-acrylamide] | 100 | 2480
8 | CCCC(=O)NCc1nc2cc(/C=C/C(=O)NO)ccc2n1CCN(CC)CC [Compound 62, N-[1-(2-Diethylamino-ethyl)-5-(2-hydroxycarbamoyl-vinyl)-1H-benzoimidazol-2-ylmethyl]-butyramide] | 54 | 2600
9 | CN(C)CCn1c(CC(F)(F)F)nc2cc(/C=C/C(=O)NO)ccc21 [Compound 66, 3-[1-(2-Dimethylamino-ethyl)-2-(2,2,2-trifluoro-ethyl)-1H-benzoimidazol-5-yl]-N-hydroxy-acrylamide] | 340 | 8800
10 | CCCCc1nc2cc(/C=C/C(=O)NO)ccc2n1C1CCNCC1 [Compound 70, 3-(2-Butyl-1-piperidin-4-yl-1H-benzoimidazol-5-yl)-N-hydroxy-acrylamide] | 68 | 7000
11 | CC/C=C\CCCCCc1nc2cc(/C=C/C(=O)NO)ccc2n1CCNC [Compound 73, N-Hydroxy-3-[1-(2-methylamino-ethyl)-2-non-6-enyl-1H-benzoimidazol-5-yl]-acrylamide] | 26 | 230
12 | CCCCCCCCc1nc2cc(/C=C/C(=O)NO)ccc2n1CCNC [Compound 76, N-Hydroxy-3-[1-(2-methylamino-ethyl)-2-octyl-1H-benzoimidazol-5-yl]-acrylamide] | 18 | 290
13 | CCCCCCCCc1nc2cc(/C=C/C(=O)NO)ccc2n1CCN [Compound 77, 3-[1-(2-Amino-ethyl)-2-octyl-1H-benzoimidazol-5-yl]-N-hydroxy-acrylamide] | 26 | 670
14 | CCCCCc1nc2cc(/C=C/C(=O)NO)ccc2n1CCN(C)CC [Compound 79, 3-{1-[2-(Ethyl-methyl-amino)-ethyl]-2-pentyl-1H-benzoimidazol-5-yl}-N-hydroxy-acrylamide] | 40 | 450
15 | CCCCc1nc2cc(/C=C/C(=O)NO)ccc2n1C1CCN(C)C1 (stereo not drawn) [Compound 81, 3-[2-Butyl-1-(1-methyl-pyrrolidin-3-yl)-1H-benzoimidazol-5-yl]-N-hydroxy-acrylamide] | 120 | 1000

More lines, now with the values ahead:

Row | IC50 [1] [nM] | GI50 [2] [nM] | SMILES
16 | 53 | 540 | CCN(CC)CCn1c(CCSC)nc2cc(/C=C/C(=O)NO)ccc21 [Compound 45, 3-[1-(2-Diethylamino-ethyl)-2-(2-methylsulfanyl-ethyl)-1H-benzoimidazol-5-yl]-N-hydroxy-acrylamide]
17 | 210 | 3600 | CCCCc1nc2cc(/C=C/C(=O)NO)ccc2n1CCCNC(C)C [Compound 47, 3-[2-Butyl-1-(3-isopropylamino-propyl)-1H-benzoimidazol-5-yl]-N-hydroxy-acrylamide]
18 | 110 | 1750 | C=CCCc1nc2cc(/C=C/C(=O)NO)ccc2n1CCNCC [Compound 49, 3-[2-But-3-enyl-1-(2-ethylamino-ethyl)-1H-benzoimidazol-5-yl]-N-hydroxy-acrylamide]
19 | 100 | 1050 | CC(C)NCCn1c(CCC(F)(F)F)nc2cc(/C=C/C(=O)NO)ccc21 [Compound 53, N-Hydroxy-3-[1-(2-isopropylamino-ethyl)-2-(3,3,3-trifluoro-propyl)-1H-benzoimidazol-5-yl]-acrylamide]
20 | 48 | 460 | CC/C=C\CCc1nc2cc(/C=C/C(=O)NO)ccc2n1CCN(C)C [Compound 54, 3-[1-(2-Dimethylamino-ethyl)-2-hex-3-enyl-1H-benzoimidazol-5-yl]-N-hydroxy-acrylamide]
21 | 37 | 910 | CC(Cc1nc2cc(/C=C/C(=O)NO)ccc2n1CCN)CC(C)(C)C (stereo not drawn) [Compound 55, 3-[1-(2-Amino-ethyl)-2-(2,4,4-trimethyl-pentyl)-1H-benzoimidazol-5-yl]-N-hydroxy-acrylamide]
22 | 29 | 900 | CCCCCCCC(Cc1nc2cc(/C=C/C(=O)NO)ccc2n1CCN)OC (stereo not drawn) [Compound 56, 3-[1-(2-Amino-ethyl)-2-(2-methoxy-nonyl)-1H-benzoimidazol-5-yl]-N-hydroxy-acrylamide]
23 | 70 | 1320 | CCN(CC)CCn1c(CNC(=O)C(C)(C)C)nc2cc(/C=C/C(=O)NO)ccc21 [Compound 61, 3-{1-(2-Diethylamino-ethyl)-2-[(2,2-dimethyl-propionylamino)-methyl]-1H-benzoimidazol-5-yl}-N-hydroxy-acrylamide]
24 | 100 | 730 | CN(C)CCn1c(CCC(C)(C)C)nc2cc(/C=C/C(=O)NO)ccc21 [Compound 64, 3-[2-(3,3-Dimethyl-butyl)-1-(2-Dimethylamino-ethyl)-1H-benzoimidazol-5-yl]-N-hydroxy-acrylamide]
25 | 17 | 160 | CCCCC/C=C\CCc1nc2cc(/C=C/C(=O)NO)ccc2n1CCNC [Compound 72, N-Hydroxy-3-[1-(2-methylamino-ethyl)-2-non-3-enyl-1H-benzoimidazol-5-yl]-acrylamide]
26 | 50 | 1200 | CCCCCc1nc2cc(/C=C/C(=O)NO)ccc2n1CCNC [Compound 75, N-Hydroxy-3-[1-(2-methylamino-ethyl)-2-pentyl-1H-benzoimidazol-5-yl]-acrylamide]
27 | 63 | 1030 | CCCCCc1nc2cc(/C=C/C(=O)NO)ccc2n1CCN(CC)CCOC [Compound 84, 3-(1-{2-[Ethyl-(2-methoxy-ethyl)-amino]-ethyl}-2-pentyl-1H-benzoimidazol-5-yl)-N-hydroxy-acrylamide]
